Data set [1] concerns estrogen-dependent cell proliferation. The conditions noted are these: cited from earlier work.
In data set [2] the test system is T47D cells. Kind of data set: Cell survival/growth inhibition assay in ER+ T47D breast cancer cells. It counts as cell-based. The settings on record: for inhibition at 1 µM / inhibition at 0.1 µM: T47D; for pIC50: dose-response, T47D cells. The text has this:
The T47D cell line is also an ER positive control cell line.
To test if the prodrugs can inhibit growth in another breast cancer cell line that also expresses the estrogen receptor, T47D cells were used.

Data set [3] in a line: Kinetic stability of prodrug (conversion to 4-OHT) in MCF-7 cell culture. It counts as in vitro ADME, human. The settings on record: human, MCF-7 cell culture; 0 to 144 hours, regression of prodrug concentration relative to 4-OHT. How it is done:
(§1) A kinetic study on the stability of the prodrugs was performed. In the study, the relative concentration of a prodrug to 4-OHT was determined at different time points that ranged from 0 hour to 144 hours (6 days).

Data set [4] deals with MCF-7 cells. The data set can be described thus: Cell survival/growth inhibition assay in ER+ MCF-7 breast cancer cells. It counts as cell-based, human. The conditions noted are these: for inhibition at 1 µM / inhibition at 0.1 µM: MCF7. The text has this: MCF-7 is a human breast adenocarcinoma cell line commonly accepted in the art as useful for in vitro breast cancer studies because it has retained several ideal characteristics particular to mammary epithelium. These characteristics include the ability to process estrogen (in the form of estradiol) via estrogen receptors in the cell cytoplasm. This makes the MCF-7 cell line an estrogen receptor (ER) positive control cell line.
To test if the prodrugs inhibit breast cancer cell growth and proliferation, cell survival assays were conducted.

Data set [5] has as its system MCF-7 cells. Kind of data set: Oxidative conversion of prodrug to 4-OHT in media after incubation with MCF-7 cells (HPLC-MS/MS). The settings on record: LC-MS/MS. It counts as in vitro ADME, human. How it is done: (§2) To determine if the actions of the prodrugs are by means of biotransformation into the compound 4-hydroxytamoxifen, we analyzed the concentrations of the prodrugs and 4-hydroxytamoxifen in the media containing breast cancer cells using an HPLC-MS/MS technique.
(§3) Using HPLC coupled to a linear trap mass spectrometer, the prodrugs and their active product, 4-OHT were separated, identified, and quantified.
(§4) The relative peak areas were measured at 30.4% for prodrug 3 and 69.6% for 4-OHT (FIG. 5 panel A).

Data set [6] relates to T47D cells. The data set can be described thus: Oxidative conversion of prodrug to 4-OHT in media after incubation with T47D cells (HPLC-MS/MS). It counts as in vitro ADME. The conditions noted are these: LC-MS/MS. On the procedure: as §2, §3, §4
The subject of a further data set is MCF-7 cell culture. The data set can be described thus: Kinetic stability of prodrug (conversion to 4-OHT) in MCF-7 cell culture. The settings on record: 0 to 144 hours, regression of prodrug concentration relative to 4-OHT. It counts as in vitro ADME, human. How it is done: as §1
[7] abbreviates: Homo sapiens, MCF7, dose-response, MCF-7 cells.

Broadly, the inhibition is the relative decrease from the control value, in per cent. Read a high inhibition as a strong effect. The term pIC50 denotes the IC50 on a negative log10 scale, so that one unit is a factor of ten. Usually half-life stands for the time in which the quantity being followed falls by half.

pIC50: −log10 of the molar value.

In the case of 4-hydroxytamoxifen [Prodrug 4-OHT], the “potency relative to tamoxifen in inhibiting estrogen-dependent cell proliferation” value in data set [1] is recorded as 30- to 100 fold.
As for `CCC(=C(c1ccc(OCCN(C)C)cc1)c1ccc(B2OC(C)(C)C(C)(C)O2)cc1)c1ccccc1` [Prodrug 1, N,N-Dimethyl-2-(4-(2-phenyl-1-(4-(4,4,5,5-tetramethyl-1,3,2-dioxaborolan-2-yl)phenyl)but-1-en-1-yl)phenoxy)ethanamine], the inhibition at 1 µM in the data set on T47D cells [2] (Homo sapiens, 10^−6 M) stood at 60%; in the data set on MCF-7 cells [4] (Homo sapiens, 10^−6 M), 63%. For the same molecule, the inhibition at 0.1 µM was determined as 42% with T47D cells [2] (Homo sapiens, 10^−7 M) and 52% with MCF-7 cells [4] (Homo sapiens, 10^−7 M). Also, the pIC50 in the data set on T47D cells [2] (Homo sapiens) is 6.84; with MCF-7 cells [4] (setting [7]) it was 6.82; with MCF-7 cells [4] (dose-response, MCF-7 cells, listed as Boron-4-OHT Prodrug (1)), 6.83. Moreover, in data set [3], the half-life is 89 h. Also, in the data set with MCF-7 cells [4] (cell line not given, values match MCF-7), the “IC50 relative to tamoxifen” value is recorded as “about 5 times lower”.
Consider `CCC(=C(c1ccc(OCCN(C)C)cc1)c1ccc([B-](F)(F)F)cc1)c1ccccc1.[K+]` [Prodrug 2, Potassium (4-(1-(4-(2-(dimethylamino)ethoxy)phenyl)-2-phenylbut-1-en-1-yl)phenyl)trifluoro boronate], for which the “% peak area of 4-OHT formed from prodrug” value in the data set with MCF-7 cells [5] was 81.6%. Besides, the “% peak area of 4-OHT formed from prodrug (transformed into 4-OHT)” value in the data set with T47D cells [6] is given as 86.3%. Further, the “growth inhibition of T47D cells” value with T47D cells [2] (10^−6 M) amounted to 50%; in the data set with T47D cells [2] (10^−7 M), 38%. In addition, the pIC50 with T47D cells [2] was 6.59; in the data set on MCF-7 cells [4] (dose-response, MCF-7 cells) it was 8.20; in the data set with MCF-7 cells [4] (dose-response, MCF-7 cells, listed as Boron-4-OHT Prodrug (2)) it was 8.20. Also, the “half-life of prodrug (conversion to 4-OHT)” value in the data set on MCF-7 cell culture came out at 84 h. Further, the figures for the “growth inhibition of MCF-7 cells” value in the data set with MCF-7 cells [4] (10^−6 M) and in the data set with MCF-7 cells [4] (10^−7 M) were 76% and 59%, respectively.
For `CCC(=C(c1ccc(OCCN(C)C)cc1)c1ccc(B(O)O)cc1)c1ccccc1` [Prodrug 3, (4-(1-(4-(2-(Dimethylamino)ethoxy)phenyl)-2-phenylbut-1-en-1-yl)phenyl)boronic acid], the “relative peak area of remaining prodrug” value in the data set on MCF-7 cells [5] was found to be 30.4%. Also, in the data set with T47D cells [6], the “% peak area of remaining prodrug” value was 20.9%. The inhibition at 1 µM in the data set on T47D cells [2] (Homo sapiens, 10^−6 M) amounted to 54%; in the data set on MCF-7 cells [4] (Homo sapiens, 10^−6 M) it was 75%. Further, the inhibition at 0.1 µM in the data set with T47D cells [2] (Homo sapiens, 10^−7 M) was found to be 44%; with MCF-7 cells [4] (Homo sapiens, 10^−7 M), 51%. Besides, the pIC50 with T47D cells [2] (Homo sapiens) was 6.64; with MCF-7 cells [4] (setting [7]) it was 7.38. Further, the half-life in data set [3] is 96 h.
Take `CCC(=C(c1ccc(OCCNC)cc1)c1ccc(B(O)O)cc1)c1ccccc1` [Prodrug 11, (4-(1-(4-(2-(Methylamino)ethoxy)phenyl)-2-phenylbut-1-en-1-yl)phenyl)boronic acid]: at 1 µM the inhibition with T47D cells [2] (Homo sapiens, 10^−6 M) was 53%. Further, in the data set on T47D cells [2] (Homo sapiens, 10^−7 M), the inhibition at 0.1 µM was found to be 40%. Moreover, the pIC50 is 6.72 in the data set with T47D cells [2] (Homo sapiens) and 7.59 in the data set with MCF-7 cells [4] (setting [7]). In addition, the “anti-proliferative efficacy compared to tamoxifen” value with MCF-7 cells [4] (MCF-7 cells) was “greater anti-proliferative efficacy than tamoxifen”.
With `CC/C(=C(\c1ccccc1)c1ccc(OCCN(C)C)cc1)c1ccccc1` [Tamoxifen], in the data set with T47D cells [2] (10^−6 M), the “growth inhibition of T47D cells” value was 48%. Also, the inhibition at 1 µM came to 46% in the data set on T47D cells [2] (Homo sapiens, 10^−6 M) and 52% with MCF-7 cells [4] (Homo sapiens, 10^−6 M). The inhibition at 0.1 µM came to 39% in the data set on T47D cells [2] (Homo sapiens, 10^−7 M) and 18% in the data set on MCF-7 cells [4] (Homo sapiens, 10^−7 M).

Values taken from patent publication US9353132B2, “Boron-based 4-hydroxytamoxifen and endoxifen prodrugs as treatment for breast cancer” (XAVIER UNIVERSITY OF LOUISIANA, priority 2012, dated 2016).
